# Data taken from patent US4780420A (Yale University, priority 1985, dated 1988).
# Like-named read-outs stand apart in the source and are kept apart here.
# Key:
# progesterone receptor [1] = target: T1, progesterone receptor (Oryctolagus cuniculus, UniProt P06186); assay: Competition of a series of steroids with [^3 H]R5020 and [^125 I]EVNT (specificity); format: binding, rabbit; details: for competing for sites with either ligand (in words): [^3 H]R5020 and [^125 I]EVNT; for activity at 0.003 µM: competitor 3 nM; for activity at 0.1 µM: competitor 100 nM
# T1 construct: On the fifth day the uterus was excised, weighed and homogenized; from tissue
# T1 sequence (P06186 1-930): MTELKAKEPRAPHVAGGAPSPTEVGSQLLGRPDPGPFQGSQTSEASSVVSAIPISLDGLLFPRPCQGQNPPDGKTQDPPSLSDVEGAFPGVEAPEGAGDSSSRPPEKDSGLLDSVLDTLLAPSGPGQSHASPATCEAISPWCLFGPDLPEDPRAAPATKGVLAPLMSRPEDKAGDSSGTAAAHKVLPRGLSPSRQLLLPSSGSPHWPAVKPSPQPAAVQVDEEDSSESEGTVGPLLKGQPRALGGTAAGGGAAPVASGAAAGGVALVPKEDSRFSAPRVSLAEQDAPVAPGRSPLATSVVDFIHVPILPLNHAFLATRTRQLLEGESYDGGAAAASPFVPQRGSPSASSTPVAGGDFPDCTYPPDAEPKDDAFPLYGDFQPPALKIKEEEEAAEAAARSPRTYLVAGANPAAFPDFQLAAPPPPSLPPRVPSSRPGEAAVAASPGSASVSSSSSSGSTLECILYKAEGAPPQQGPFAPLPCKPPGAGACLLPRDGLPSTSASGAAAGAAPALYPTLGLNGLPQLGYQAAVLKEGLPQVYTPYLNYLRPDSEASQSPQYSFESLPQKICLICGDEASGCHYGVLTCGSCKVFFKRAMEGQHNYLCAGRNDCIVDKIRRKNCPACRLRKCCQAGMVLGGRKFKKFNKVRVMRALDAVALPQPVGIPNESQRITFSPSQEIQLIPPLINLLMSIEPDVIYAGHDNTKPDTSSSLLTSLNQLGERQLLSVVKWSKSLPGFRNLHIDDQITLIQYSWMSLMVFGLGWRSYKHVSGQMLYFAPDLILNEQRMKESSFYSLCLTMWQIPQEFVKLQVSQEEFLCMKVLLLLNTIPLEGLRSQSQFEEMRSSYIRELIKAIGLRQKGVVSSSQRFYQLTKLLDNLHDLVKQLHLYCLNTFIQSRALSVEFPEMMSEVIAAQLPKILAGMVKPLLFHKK
# Method: To be sure that [^125 I]EVNT and [^3 H]R5020 bound with similar specificities, experiments were performed in which a series of steroids competed with the two differently labelled ligands.
# Bo is dpm specifically bound when
# B is dpm bound in the presence of […]
# estrogen receptor = details: Hansen et al., Jogoda et al.; cited from earlier work
# [2] = in vivo; cited from earlier work
# progesterone receptor [3] = target: T1, progesterone receptor; assay: Saturation and Scatchard analysis of the progesterone receptor with [^125 I]EVNT and [^3 H]R5020; format: binding, rabbit; details: for slope and intercept of the Scatchard plots, i.e. -Ka and the binding capacity (in words): FIG. 3, R5020 vs EVNT
# progesterone receptor [4] = target: T1, progesterone receptor; assay: Progesterone receptor assay: competition with [^3 H]R5020 binding; design: species or system rabbit
# Method: On the fifth day the uterus was excised, weighed and homogenized at 0° C. in 1.5 volumes of iced buffer containing: 1 mM dithiothreitol, 0.15 mM Na2 EDTA, 30% glycerol, 20 mM sodium molybdate, 10 mM Tris/HCl, pH 7.4 (4° C.). Homogenization was accomplished with three 10 second bursts of Polytron homogenizer. The homogenate was centrifuged at 3,000×g for 10 min. and the resulting supernatant was centrifuged at 100,000×g for 1 hour. The final supertant (cytosol) was diluted with homogenization buffer to afford 20-40% binding of a trace of [^3 H]R5020 (90 Ci/mMol), 10,000 dpm, and 50 μl of the appropriate radioinert compound. Non-specific binding was evaluated in tubes containing 2 μM R5020. After incubating at 4° C. overnight, free and bound steroids were separated by the addition of 100 μl of a stirred suspension of charcoal (5 mg/ml) in 10 mM Tris-HCl, pH 7.4 (4° C.), 0.15 mM Na2 EDTA. After mixing and standing on ice for 10 min., the tubes were centrifuged at 1500×g for 10 mins. and the "bound" radioactivity, in a 0.15 ml aliquot of the supernatant, was measured in a liquid scintillation counter.
# In FIG. 1, Bo is the specifically bound [^3 H]R5020 alone and b is the specifically bound [^3 H]R5020 in the presence of the designated concentration of competitor. […] In Table 1 below, the values in parenthesis are the number of complete experiments which were conducted; the binding constants are means±SEM.
# [5] = Storage stability by thin layer chromatography; format: physicochemical; details: 4° C., 10% ethanol in benzene
# Method: The radioactive product, [^125 I]EVNT, was stored at 4° C. in the alcoholic benzene solution.
# [6] = read-out: B/Bo × 10^2, radioligand [^3 H]R5020 (0.67 nM)
# [7] = read-out: B/Bo × 10^2, radioligand [^125 I]EVNT (0.18 nM)
# [8] = radioligand [^3 H]R5020 (0.67 nM), read-out: B/Bo × 10^2
# [9] = radioligand [^125 I]EVNT (0.18 nM), read-out: B/Bo × 10^2
# [10] = estrogen stimulated rabbit uterine cytosol, five experiments
smiles,measurement,setting,value
"C[C@]12CCC(=O)C[C@@H]1CC[C@@H]1[C@@H]2CC[C@]2(C)[C@@H](O)CC[C@@H]12 [5α-DHT, 5α-dihydrotestosterone]",competing for sites with either ligand (in words),progesterone receptor [1],ineffective in competing for sites with either ligand
same,activity at 0.003 µM,progesterone receptor [1]; [6],101%
same,activity at 0.1 µM,progesterone receptor [1]; [6],95%
same,activity at 0.003 µM,progesterone receptor [1]; [7],100%
same,activity at 0.1 µM,progesterone receptor [1]; [7],91%
C[C@]12CCC(=O)C=C1CC[C@@H]1[C@@H]2[C@@H](O)C[C@@]2(C)[C@H]1CC[C@]2(O)C(=O)CO [Cortisol],competing for sites with either ligand (in words),progesterone receptor [1],ineffective in competing for sites with either ligand
same,activity at 0.003 µM,progesterone receptor [1]; [8],98%
same,activity at 0.1 µM,progesterone receptor [1]; [8],106%
same,activity at 0.003 µM,progesterone receptor [1]; [9],100%
same,activity at 0.1 µM,progesterone receptor [1]; [9],102%
C[C@@H]1C[C@H]2[C@@H]3CCC4=CC(=O)C=C[C@]4(C)[C@@]3(F)[C@@H](O)C[C@]2(C)[C@@]1(O)C(=O)CO [Dexamethasone],competing for sites with either ligand (in words),progesterone receptor [1],ineffective in competing for sites with either ligand
same,activity at 0.003 µM,progesterone receptor [1]; [8],103%
same,activity at 0.1 µM,progesterone receptor [1]; [8],101%
same,activity at 0.003 µM,progesterone receptor [1]; [9],96%
same,activity at 0.1 µM,progesterone receptor [1]; [9],100%
C[C@]12CC[C@@H]3c4ccc(O)cc4CC[C@H]3[C@@H]1CC[C@@]2(O)/C=C/I [E-17α-[2-iodovinyl]analogs of estradiol],binding to the estrogen receptor (in words),estrogen receptor,bind to the estrogen receptor
same,concentration in estrogen target tissues (in words),[2],concentrate in estrogen target tissues
"C[C@]12CC[C@H]3[C@@H](CCC4=CC(=O)CC[C@@H]43)[C@@H]1CC[C@@]2(O)/C=C/I [EVNT, E-17α-(2-iodovinyl)-4-estrene-17β-ol-3-one]","slope and intercept of the Scatchard plots, i.e. -Ka and the binding capacity (in words)",progesterone receptor [3],almost the same
same,level of non-specific binding (in words),progesterone receptor [3]; FIGS. 2A and 2B,satisfactory and almost identical to that seen with R5020
same,competing for sites with either ligand (in words),progesterone receptor [1],substantial competition
same,activity at 0.003 µM,progesterone receptor [1]; [6],42%
same,activity at 0.1 µM,progesterone receptor [1]; [6],0%
same,activity at 0.003 µM,progesterone receptor [1]; [7],74%
same,activity at 0.1 µM,progesterone receptor [1]; [7],0%
same,Ki,progesterone receptor [4],4.26 ± 0.94 nM
same,binding to the progesterone receptor (in words),progesterone receptor [4],bind the progesterone receptor with high affinity
"C[C@]12CC[C@H]3[C@@H](CCC4=CC(=O)CC[C@@H]43)[C@@H]1C[C@@H](I)[C@@H]2O [INT, 16α-Iodo-4-estrene-17β-ol-3-one]",Ki,progesterone receptor [4],39.8 nM
same,binding to the progesterone receptor (in words),progesterone receptor [4],bind the progesterone receptor with high affinity
CC(=O)[C@H]1CC[C@H]2[C@@H]3CCC4=CC(=O)CC[C@]4(C)[C@H]3CC[C@]12C [Progesterone],competing for sites with either ligand (in words),progesterone receptor [1],substantial competition
same,activity at 0.003 µM,progesterone receptor [1]; [8],94%
same,activity at 0.1 µM,progesterone receptor [1]; [8],37%
same,activity at 0.003 µM,progesterone receptor [1]; [9],91%
same,activity at 0.1 µM,progesterone receptor [1]; [9],22%
"CCC(=O)[C@@]1(C)CC[C@H]2[C@@H]3CCC4=CC(=O)CCC4=C3CC[C@@]21C [R5020, 17α,21-dimethyl-19-nor-4,9-pregnadiene-3,20-dione]","slope and intercept of the Scatchard plots, i.e. -Ka and the binding capacity (in words)",progesterone receptor [3],almost the same
same,competing for sites with either ligand (in words),progesterone receptor [1],substantial competition
same,activity at 0.003 µM,progesterone receptor [1]; [8],34%
same,activity at 0.1 µM,progesterone receptor [1]; [8],0%
same,activity at 0.003 µM,progesterone receptor [1]; [9],74%
same,activity at 0.1 µM,progesterone receptor [1]; [9],0%
same,Kd,"progesterone receptor [4]; R5020, footnote *Kd, rabbit uterine cytosol, mean±SEM (5 experiments)",1.05 ± 0.19 nM
C[C@]12CC[C@H]3[C@@H](CCC4=CC(=O)CC[C@@]43C)[C@@H]1CC[C@@H]2O [Testosterone],competing for sites with either ligand (in words),progesterone receptor [1],ineffective in competing for sites with either ligand
same,activity at 0.003 µM,progesterone receptor [1]; [6],100%
same,activity at 0.1 µM,progesterone receptor [1]; [6],105%
same,activity at 0.003 µM,progesterone receptor [1]; [7],101%
same,activity at 0.1 µM,progesterone receptor [1]; [7],98%
"C[C@]12CC[C@H]3[C@@H](CCC4=CC(=O)CC[C@@H]43)[C@@H]1CC[C@@]2(O)/C=C\I [ZVNT, Z-17α-(2-iodovinyl)-4-estrene-17β-ol-3-one]",Ki,progesterone receptor [4],1.81 nM
same,binding to the progesterone receptor (in words),progesterone receptor [4]; listed as Z 17α-(2-iodovinyl) analog of 19-nortestosterone,bind the progesterone receptor with high affinity
same,binding to the progesterone receptor (in words),progesterone receptor [4]; listed as Z isomer,somewhat greater affinity for the progesterone receptor
"CCC(=O)[C@@]1(C)CC[C@H]2[C@@H]3CCC4=CC(=O)CCC4=C3CC[C@@]21C [[^3 H]R5020, [^3 H]17α,21-dimethyl-19-nor-4,9-pregnadiene-3,20-dione]",binding capacity,progesterone receptor [3]; [10],666 ± 198 pM
same,Kd,"progesterone receptor [3]; estrogen stimulated rabbit uterine cytosol, five experiments, ± SEM, read-out: Association constant Ka (converted)",0.8 nM
C[C@]12CC[C@H]3[C@@H](CCC4=CC(=O)CC[C@@H]43)[C@@H]1CC[C@@]2(O)/C=C/[125I] [[^125 I]EVNT],Kd,progesterone receptor [3],1.05 nM
same,binding capacity,progesterone receptor [3]; [10],921 pM
same,stable for a period of at least,[5],2-3 months
